Results: patent US6608082B1, “Treatment of erectile dysfunction using isoquinoline compound melanocortin receptor ligands” (Lion Bioscience AG, priority 1998, dated 2003)

Legend:
MCR-4 = biological target: T1, MCR-4 (Homo sapiens, UniProt P32245); test: Melanocortin receptor binding assay, competition with 125I-HP 467, HEK 293 cells expressing hMCR-4; settings: competition with 125I-HP 467, HEK 293 cells expressing MCR-4; read-out: MC-4 IC50
T1 construct: expressed in transfected cells; host or cells: HEK 293
T1 sequence (P32245 whole entry): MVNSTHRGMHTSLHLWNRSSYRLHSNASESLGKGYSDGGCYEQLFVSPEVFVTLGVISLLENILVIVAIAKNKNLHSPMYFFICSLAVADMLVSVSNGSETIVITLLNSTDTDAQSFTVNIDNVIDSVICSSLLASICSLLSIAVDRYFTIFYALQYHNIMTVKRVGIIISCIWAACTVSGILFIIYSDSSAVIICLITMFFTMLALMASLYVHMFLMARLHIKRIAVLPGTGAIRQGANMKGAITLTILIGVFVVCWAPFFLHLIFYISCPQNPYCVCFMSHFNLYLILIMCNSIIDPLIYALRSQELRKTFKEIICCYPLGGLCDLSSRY
How it was run: (§1)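 Intact-cell competition binding, 2.5 hr at 37 °C, in PBS/10% calf serum/1 mM CaCl2; hMCR-4 cells at 4×10^3 per tube, hMCR-1 cells at 2×10^4 per tube. Filtration on BSA/CaCl2-soaked GF/B, cold 50 mM Tris pH 7.4 washes, scintillation count.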

MCR-1 = biological target: T2, MCR-1 (Homo sapiens, UniProt Q01726); test: Melanocortin receptor binding assay, competition with 125I-HP 467, HEK 293 cells expressing hMCR-1; settings: for IC50: competition with 125I-HP 467, HEK 293 cells expressing MCR-1, read-out: MC-1 IC50; for effectiveness as MC receptor ligand: binding to MC receptors, Table 1
T2 construct: expressed in transfected cells; host or cells: HEK 293
T2 sequence (Q01726 whole entry): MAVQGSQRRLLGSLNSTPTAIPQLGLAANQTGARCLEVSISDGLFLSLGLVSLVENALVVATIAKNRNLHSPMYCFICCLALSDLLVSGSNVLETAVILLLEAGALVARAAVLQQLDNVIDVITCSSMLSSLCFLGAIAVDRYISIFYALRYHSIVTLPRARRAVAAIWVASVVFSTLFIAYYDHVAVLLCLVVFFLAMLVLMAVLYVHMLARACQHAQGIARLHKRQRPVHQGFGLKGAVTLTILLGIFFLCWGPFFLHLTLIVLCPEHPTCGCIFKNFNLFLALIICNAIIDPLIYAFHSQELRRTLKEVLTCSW
How it was run: as §1

SMILES | IC50 (MCR-4) [µM] | IC50 (MCR-1) [µM] | effectiveness as MC receptor ligand (MCR-1)
CNC(CN)CCCCN1Cc2ccccc2C(CNC2CCCCC2)C1c1ccc(NCc2ccc(OC)cc2)cc1 (centres unmarked) [TRG 2409-18] | 16.9 | 7.51 | 
CNC(CN)CCCCN1Cc2ccccc2C(CNC2CCCCC2)C1c1ccc(NCCc2ccccc2)cc1 (centres unmarked) [TRG 2409-19] | 15.5 | 2.08 | 
CCCNc1ccc(C2C(CNC3CCCCC3)c3ccccc3CN2CCCCC(CN)NC)cc1 (centres unmarked) [TRG 2409-20] | 19.8 | 0.88 | 
CNC(CN)CCCCN1Cc2ccccc2C(CNC2CCCCC2)C1c1ccc(NCCc2ccc(OC)cc2)cc1 (centres unmarked) [TRG 2409-21] | 14.7 | 2.63 | 
CNC(CN)CCCCN1Cc2ccccc2C(CNC2CCCCC2)C1c1ccc(NCCC2CC3CCC2C3)cc1 (centres unmarked) [TRG 2409-22] | 12.3 | 1.53 | 
CNC(CN)CCCCN1Cc2ccccc2C(CNC2CCCCC2)C1c1ccc(NCCc2ccc(Cl)c(Cl)c2)cc1 (centres unmarked) [TRG 2409-23] | 19.6 | 4.77 | 
CNC(CN)CCCCN1Cc2ccccc2C(CNC2CCCCC2)C1c1ccc(NCc2ccc(Cl)cc2)cc1 (centres unmarked) [TRG 2409-24] | 12.2 | 3.95 | 
CCCCNc1ccc(C2C(CN)c3ccccc3CN2CCCC(CN)NCCc2ccccc2)cc1 (centres unmarked) [TRG 2409-221] | 0.85 | 0.08 | 
CCCCNc1ccc(C2C(CN)c3ccccc3CN2CCCC(CN)NCCc2ccc(OC)cc2)cc1 (centres unmarked) [TRG 2409-223] | 0.63 | 0.1 | 
CCCCNc1ccc(C2C(CN)c3ccccc3CN2CCCC(CN)NCc2ccccc2)cc1 (centres unmarked) [TRG 2409-224] | 1.32 | 0.12 | 
CCCCNc1ccc(C2C(CN)c3ccccc3CN2CCCC(CN)NCc2ccc(Cl)cc2)cc1 (centres unmarked) [TRG 2409-225] | 1.12 | 0.12 | 
NCC(N)CCCCN1Cc2ccccc2C(CNCCc2ccccc2)C1c1ccc(-c2ccccc2)cc1 (centres unmarked) [TRG 2411-1] | 1.22 | 0.6 | 
NCC(CCCCN1Cc2ccccc2C(CNCCc2ccccc2)C1c1ccc(-c2ccccc2)cc1)N1CCCC1 (centres unmarked) [TRG 2411-9] | 1.27 | 0.13 | 
CCCCNC(CN)CCCCN1Cc2ccccc2C(CNCCc2ccccc2)C1c1ccc(-c2ccccc2)cc1 (centres unmarked) [TRG 2411-11] | 1.8 | 0.83 | 
CCCCNC(CN)CCCCN1Cc2ccccc2C(CNC2CCCCC2)C1c1ccc(-c2ccccc2)cc1 (centres unmarked) [TRG 2411-20] | 0.77 | 0.61 | 
NCC(CCCCN1Cc2ccccc2C(CNC2CCCCC2)C1c1ccc(-c2ccccc2)cc1)NCC1CCCCC1 (centres unmarked) [TRG 2411-21] | 1.01 | 0.27 | 
NCC(CCCCN1Cc2ccccc2C(CNC2CCCCC2)C1c1ccc(-c2ccccc2)cc1)NCc1ccccc1 (centres unmarked) [TRG 2411-22] | 1.73 | 0.42 | 
CNCCNC(CN)CCCCN1Cc2ccccc2C(CN)C1c1ccc(-c2ccccc2)cc1 (centres unmarked) [TRG 2411-26] | 6.17 | 0.09 | particularly effective MC receptor ligands
NCC(CCCCN1Cc2ccccc2C(CN)C1c1ccc(-c2ccccc2)cc1)NCCO (centres unmarked) [TRG 2411-29] | 1.42 | 0.3 | 
CNC(CNC(CN)CCCCN1Cc2ccccc2C(CN)C1c1ccc(-c2ccccc2)cc1)Cc1ccccc1 (centres unmarked) [TRG 2411-30] | 1.33 | 0.3 | 

SMILES | IC50 (MCR-4) [µM] | IC50 (MCR-1) [µM] | effectiveness as MC receptor ligand (MCR-1)
CCCCNC(CN)CCCCN1Cc2ccccc2C(CN)C1c1ccc(-c2ccccc2)cc1 (centres unmarked) [TRG 2411-33] | 1.73 | 0.39 | 
CCCCNC(CN)CCCCN1Cc2ccccc2C(CNCCc2ccccc2)C1c1ccc(NCC)cc1 (centres unmarked) [TRG 2411-38] | 1.33 | 0.09 | 
CCNc1ccc(C2C(CNCCc3ccccc3)c3ccccc3CN2CCCCC(CN)NCCc2ccccc2)cc1 (centres unmarked) [TRG 2411-40] | 1 | 0.19 | 
CCNc1ccc(C2C(CNCCc3ccccc3)c3ccccc3CN2CCCC[C@@H](CN)NCCc2ccc(OC)cc2)cc1 (some centres unmarked) [TRG 2411-42] | 1.56 | 0.32 | 
CCNc1ccc(C2C(CNCCc3ccccc3)c3ccccc3CN2CCCCC(CN)NCc2ccccc2)cc1 (centres unmarked) [TRG 2411-43] | 1.03 | 0.19 | 
CCNc1ccc(C2C(CNCCc3ccccc3)c3ccccc3CN2CCCCC(CN)NCc2ccc(OC)cc2)cc1 (centres unmarked) [TRG 2411-45] | 0.84 | 0.12 | 
CCNc1ccc(C2C(CNCCc3ccccc3)c3ccccc3CN2CCCCC(CN)NCCc2ccc3ccccc3c2)cc1 (centres unmarked) [TRG 2411-46] | 1.33 | 0.89 | 
CCNc1ccc(C2C(CNC3CCCCC3)c3ccccc3CN2CCCCC(CN)NCCc2ccc(Br)cc2)cc1 (centres unmarked) [TRG 2411-52] | 0.86 | 0.55 | 
CCNc1ccc(C2C(CNC3CCCCC3)c3ccccc3CN2CCCCC(CN)NCCc2ccc(OC)cc2)cc1 (centres unmarked) [TRG 2411-53] | 1.65 | 0.28 | 
CCNc1ccc(C2C(CNC3CCCCC3)c3ccccc3CN2CCCCC(CN)NCc2ccccc2)cc1 (centres unmarked) [TRG 2411-54] | 1.79 | 0.13 | 
CCNc1ccc(C2C(CNC3CCCCC3)c3ccccc3CN2CCCCC(CN)NCc2ccc(Cl)cc2)cc1 (centres unmarked) [TRG 2411-55] | 2.05 | 0.09 | 
CCNc1ccc(C2C(CNC3CCCCC3)c3ccccc3CN2CCCCC(CN)NCCc2ccc3ccccc3c2)cc1 (centres unmarked) [TRG 2411-57] | 1.19 | 0.92 | 
CCNc1ccc(C2C(CNC3CCCCC3)c3ccccc3CN2CCCC[C@@H](CN)NCCC2CCCCC2)cc1 (some centres unmarked) [TRG 2411-58] | 1.11 | 0.22 | 
CCNc1ccc(C2C(CN)c3ccccc3CN2CCCCC(CN)NCCc2ccccc2)cc1 (centres unmarked) [TRG 2411-63] | 1.82 | 0.24 | 
CCCCNc1ccc(C2C(CNCCc3ccccc3)c3ccccc3CN2CCCCC(CN)NCC)cc1 (centres unmarked) [TRG 2411-74] | 2.24 | 0.11 | 
CCCCNc1ccc(C2C(CNCCc3ccccc3)c3ccccc3CN2CCCCC(CN)NCCCC)cc1 (centres unmarked) [TRG 2411-75] | 1.05 | 0.13 | 
CCCCNc1ccc(C2C(CNCCc3ccccc3)c3ccccc3CN2CCCCC(CN)NCCc2ccccc2)cc1 (centres unmarked) [TRG 2411-77] | 1.49 | 0.22 | 
CCCCNc1ccc(C2C(CNCCc3ccccc3)c3ccccc3CN2CCCCC(CN)NCCc2ccc(Br)cc2)cc1 (centres unmarked) [TRG 2411-78] | 1.32 | 0.45 | 
CCCCNc1ccc(C2C(CNCCc3ccccc3)c3ccccc3CN2CCCCC(CN)NCc2ccccc2)cc1 (centres unmarked) [TRG 2411-80] | 1.83 | 0.17 | 
CCCCNc1ccc(C2C(CNCCc3ccccc3)c3ccccc3CN2CCCCC(CN)NCc2ccc(Cl)cc2)cc1 (centres unmarked) [TRG 2411-81] | 1.38 | 0.18 | 

SMILES | IC50 (MCR-4) [µM] | IC50 (MCR-1) [µM] | effectiveness as MC receptor ligand (MCR-1)
CCCCNc1ccc(C2C(CNCCc3ccccc3)c3ccccc3CN2CCCCC(CN)NCc2ccc(OC)cc2)cc1 (centres unmarked) [TRG 2411-82] | 1.46 | 0.29 | 
CCCCNc1ccc(C2C(CNCCc3ccccc3)c3ccccc3CN2CCCCC(CN)NCCc2ccc3ccccc3c2)cc1 (centres unmarked) [TRG 2411-83] | 1.06 | 0.57 | 
CCCCNc1ccc(C2C(CNCCc3ccccc3)c3ccccc3CN2CCCCC(CN)NCCC2CCCCC2)cc1 (centres unmarked) [TRG 2411-84] | 0.76 | 0.22 | 
CCCCNc1ccc(C2C(CNC3CCCCC3)c3ccccc3CN2CCCCC(CN)NCCCC)cc1 (centres unmarked) [TRG 2411-88] | 1.5 | 0.24 | 
CCCCNc1ccc(C2C(CNC3CCCCC3)c3ccccc3CN2CCCCC(CN)NCCc2ccccc2)cc1 (centres unmarked) [TRG 2411-90] | 1.17 | 0.25 | 
CCCCNc1ccc(C2C(CNC3CCCCC3)c3ccccc3CN2CCCCC(CN)NCc2ccc(Cl)cc2)cc1 (centres unmarked) [TRG 2411-94] | 1.71 | 0.09 | 
CCCCNc1ccc(C2C(CNC3CCCCC3)c3ccccc3CN2CCCCC(CN)NCc2ccc(OC)cc2)cc1 (centres unmarked) [TRG 2411-95] | 1.03 | 0.11 | 
CCCCNc1ccc(C2C(CNC3CCCCC3)c3ccccc3CN2CCCCC(CN)NCCc2ccc3ccccc3c2)cc1 (centres unmarked) [TRG 2411-96] | 1.65 | 0.6 | 
CCCCNc1ccc(C2C(CN)c3ccccc3CN2CCCCC(CN)NCCCC)cc1 (centres unmarked) [TRG 2411-102] | 1.17 | 0.09 | 
CCCCNc1ccc(C2C(CN)c3ccccc3CN2CCCCC(CN)NCCc2ccccc2)cc1 (centres unmarked) [TRG 2411-104] | 0.59 | 0.16 | 
CCCCNc1ccc(C2C(CN)c3ccccc3CN2CCCCC(CN)NCCc2ccc(Br)cc2)cc1 (centres unmarked) [TRG 2411-105] | 0.91 | 0.21 | 
CCCCNc1ccc(C2C(CN)c3ccccc3CN2CCCCC(CN)NCc2ccc(OC)cc2)cc1 (centres unmarked) [TRG 2411-109] | 1.4 | 0.1 | 
CCCCNc1ccc(C2C(CN)c3ccccc3CN2CCCCC(CN)NCCc2ccc3ccccc3c2)cc1 (centres unmarked) [TRG 2411-110] | 1.05 | 0.1 | 
CCCCNc1ccc(C2C(CN)c3ccccc3CN2CCCCC(CN)NCCC2CCCCC2)cc1 (centres unmarked) [TRG 2411-111] | 1.47 | 0.04 | particularly effective MC receptor ligands
CCCCNc1ccc(C2C(CN)c3ccccc3CN2CCCCC(CN)NCCN)cc1 (centres unmarked) [TRG 2411-112] | 1.45 | 0.2 | 
CCNC(CN)CCCN1Cc2ccccc2C(CNCCc2ccccc2)C1c1ccc(-c2ccccc2)cc1 (centres unmarked) [TRG 2411-115] | 1.43 | 0.82 | 
NCC(CCCN1Cc2ccccc2C(CNCCc2ccccc2)C1c1ccc(-c2ccccc2)cc1)NCCc1ccccc1 (centres unmarked) [TRG 2411-116] | 1.98 | 1.24 | 
NCC(CCCN1Cc2ccccc2C(CNCCc2ccccc2)C1c1ccc(-c2ccccc2)cc1)NCc1ccccc1 (centres unmarked) [TRG 2411-126] | 1.49 | 1.32 | 
CCCCNC(CN)CCCN1Cc2ccccc2C(CNC2CCCCC2)C1c1ccc(-c2ccccc2)cc1 (centres unmarked) [TRG 2411-133] | 1.59 | 1.46 | 
COCCNC(CN)CCCN1Cc2ccccc2C(CN)C1c1ccc(-c2ccccc2)cc1 (centres unmarked) [TRG 2411-146] | 1.46 | 1.22 | 
